Measured values published in patent EP0048168A2, “7-Acylamino cephalosporin compounds, their preparation and pharmaceutical formulations containing them” (ELI LILLY AND COMPANY, priority 1980, dated 1982).
≈ marks a conversion by molar mass, not a printed value. Like-named read-outs stand apart in the source and are kept apart here.

What was measured:
Assay in all cases: In vitro antibacterial activity, agar dilution technique using serial dilution
Type in all cases: cell-based
[1] = test system: Bordetella bronchoseptica; conditions: Bordetella bronchoseptica strain 16; read-out: Minimum Inhibitory Concentration
Description: (§1) The antibacterial activity of the compounds of the invention is illustrated by the in vitro activity of a preferred compound, 7β-[α-methoxyimino-α-(2-amino-1,3-thiazol-4-yl)acetamido]-3-(1-cyanomethyl-1H-tetrazol-5-ylthiomethyl)-3-cephem-4-carboxylic acid, against a wide spectrum of microorganisms. The activity was determined by the agar dilution technique using serial dilution.

Citrobacter freundii = Citrobacter freundii strain CF17; read-out: Minimum Inhibitory Concentration
Description: as §1

Enterobacter aerogenes = conditions: Klebsiella aerogenes, read-out: Minimum Inhibitory Concentration
Description: as §1

Enterobacter cloacae = test system: Enterobacter cloacae
Description: as §1

Escherichia coli = test system: Escherichia coli
Description: as §1

Haemophilus influenzae = conditions: read-out: Minimum Inhibitory Concentration
Description: as §1

Klebsiella sp. = Klebsiella sp. strain KAE; read-out: Minimum Inhibitory Concentration
Description: as §1

Proteus inconstans = conditions: Providencia alcalifaciens; Proteus inconstans strain PR33; read-out: Minimum Inhibitory Concentration
Description: as §1

Proteus morganii = conditions: Morganella morganii; Proteus morganii strain PR15; read-out: Minimum Inhibitory Concentration
Description: as §1

Proteus rettgeri = conditions: Providencia rettgeri
Description: as §1

Pseudomonas aeruginosa = test system: Pseudomonas aeruginosa
Description: as §1

Salmonella sp. = test system: Salmonella sp.
Description: as §1

Serratia marcescens = test system: Serratia marcescens
Description: as §1

Shigella sonnei = Shigella sonnei strain N9; read-out: Minimum Inhibitory Concentration
Description: as §1

Staphylococcus aureus = test system: Staphylococcus aureus
Description: as §1

[2] = test system: Staphylococcus epidermidis
Description: as §1

Streptococcus Group A = Streptococcus Group A strain C203; read-out: Minimum Inhibitory Concentration
Description: as §1

Streptococcus Group D = conditions: read-out: Minimum Inhibitory Concentration
Description: as §1

Streptococcus pneumoniae = Streptococcus pneumoniae strain Park; read-out: Minimum Inhibitory Concentration
Description: as §1

CO/N=C(\C(=O)N[C@@H]1C(=O)N2C(C(=O)O)=C(CSc3nnnn3CC#N)CS[C@H]12)c1csc(N)n1 [syn 7β-[α-Methoximino-α-(2-amino-1,3-thiazol-4-yl)-acetamido]-3-(1-cyanomethyl-1H-tetrazol-5-ylthiomethyl)-3-cephem-4-carboxylic acid]
MIC [1]: 64 µg/mL (≈ 119 µM)
MIC (Citrobacter freundii): 8 µg/mL (≈ 14.9 µM)
MIC (Enterobacter aerogenes; Enterobacter aerogenes strain EB17): 0.25 µg/mL (≈ 0.466 µM)
MIC (Enterobacter aerogenes; Enterobacter aerogenes strain X68): 0.06 µg/mL (≈ 0.112 µM)
MIC (Enterobacter aerogenes): 0.125 µg/mL (≈ 0.233 µM)
MIC (Enterobacter cloacae; Enterobacter cloacae strain 265A, read-out: Minimum Inhibitory Concentration): 32 µg/mL (≈ 59.6 µM)
MIC (Enterobacter cloacae; Enterobacter cloacae strain EB5, read-out: Minimum Inhibitory Concentration): 1 µg/mL (≈ 1.86 µM)
MIC (Escherichia coli; Escherichia coli strain EC14, read-out: Minimum Inhibitory Concentration): 0.06 µg/mL (≈ 0.112 µM)
MIC (Escherichia coli; Escherichia coli strain N10, read-out: Minimum Inhibitory Concentration): 0.25 µg/mL (≈ 0.466 µM)
MIC (Escherichia coli; Escherichia coli strain TEM, read-out: Minimum Inhibitory Concentration): 0.06 µg/mL (≈ 0.112 µM)
MIC (Haemophilus influenzae; Haemophilus influenzae strain 76, resistant strain of H. influenzae): 0.015 µg/mL (≈ 0.028 µM)
MIC (Haemophilus influenzae; Haemophilus influenzae strain C.L., sensitive strain of H. influenzae): 0.03 µg/mL (≈ 0.0559 µM)
MIC (Klebsiella sp.): 2 µg/mL (≈ 3.73 µM)
MIC (Proteus inconstans): 0.125 µg/mL (≈ 0.233 µM)
MIC (Proteus morganii): 0.06 µg/mL (≈ 0.112 µM)
MIC (Proteus rettgeri; read-out: Minimum Inhibitory Concentration, Proteus rettgeri strain C24): 0.125 µg/mL (≈ 0.233 µM)
MIC (Proteus rettgeri; Proteus rettgeri strain PR7, read-out: Minimum Inhibitory Concentration): 0.06 µg/mL (≈ 0.112 µM)
MIC (Pseudomonas aeruginosa; Pseudomonas aeruginosa strain Ps18, read-out: Minimum Inhibitory Concentration): 32 µg/mL (≈ 59.6 µM)
MIC (Pseudomonas aeruginosa; Pseudomonas aeruginosa strain X239, read-out: Minimum Inhibitory Concentration): 16 µg/mL (≈ 29.8 µM)
MIC (Pseudomonas aeruginosa; Pseudomonas aeruginosa strain X528, read-out: Minimum Inhibitory Concentration): 16 µg/mL (≈ 29.8 µM)
MIC (Salmonella sp.; Salmonella sp. strain 1335, read-out: Minimum Inhibitory Concentration): 0.5 µg/mL (≈ 0.932 µM)
MIC (Salmonella sp.; Salmonella sp. strain X514, read-out: Minimum Inhibitory Concentration): 0.125 µg/mL (≈ 0.233 µM)
MIC (Serratia marcescens; Serratia marcescens strain 3E3, read-out: Minimum Inhibitory Concentration): 0.25 µg/mL (≈ 0.466 µM)
MIC (Serratia marcescens; Serratia marcescens, read-out: Minimum Inhibitory Concentration, Serratia marcescens strain X93): 0.125 µg/mL (≈ 0.233 µM)
MIC (Shigella sonnei): 0.125 µg/mL (≈ 0.233 µM)
MIC (Staphylococcus aureus; Staphylococcus aureus strain V41, read-out: Minimum Inhibitory Concentration): 4 µg/mL (≈ 7.45 µM)
MIC (Staphylococcus aureus; Staphylococcus aureus strain X1.1, read-out: Minimum Inhibitory Concentration): 1 µg/mL (≈ 1.86 µM)
MIC (Staphylococcus aureus; Staphylococcus aureus strain X400, read-out: Minimum Inhibitory Concentration): 32 µg/mL (≈ 59.6 µM)
MIC (Staphylococcus aureus; read-out: Minimum Inhibitory Concentration): 8 µg/mL (≈ 14.9 µM)
MIC ([2]; Staphylococcus epidermidis strain EPI1, read-out: Minimum Inhibitory Concentration): 4 µg/mL (≈ 7.45 µM)
MIC ([2]; Staphylococcus epidermidis strain EPI2, read-out: Minimum Inhibitory Concentration): 8 µg/mL (≈ 14.9 µM)
MIC (Streptococcus Group A): 0.015 µg/mL (≈ 0.028 µM)
MIC (Streptococcus Group D; Streptococcus Group D strain 9960): 128 µg/mL (≈ 239 µM)
MIC (Streptococcus Group D; Streptococcus Group D strain X66): > 128 µg/mL
MIC (Streptococcus pneumoniae): 0.03 µg/mL (≈ 0.0559 µM)
